{
  "source": "patent US10925874B2",
  "about": "“Substituted pyrazolopyrimidines as glucocerebrosidase activators” (The United States of America, as Represented by the …, priority 2010, dated 2021)",
  "data": [
    {"molecular_target": "T1, N370S glucocerebrosidase from human spleen homogenate (Homo sapiens, UniProt P04062, N409S)", "T1 construct": "N370S glucocerebrosidase from human spleen homogenate as the enzyme preparation; from tissue; host or cells: human spleen homogenate", "T1 sequence (P04062 40-536 N409S)": "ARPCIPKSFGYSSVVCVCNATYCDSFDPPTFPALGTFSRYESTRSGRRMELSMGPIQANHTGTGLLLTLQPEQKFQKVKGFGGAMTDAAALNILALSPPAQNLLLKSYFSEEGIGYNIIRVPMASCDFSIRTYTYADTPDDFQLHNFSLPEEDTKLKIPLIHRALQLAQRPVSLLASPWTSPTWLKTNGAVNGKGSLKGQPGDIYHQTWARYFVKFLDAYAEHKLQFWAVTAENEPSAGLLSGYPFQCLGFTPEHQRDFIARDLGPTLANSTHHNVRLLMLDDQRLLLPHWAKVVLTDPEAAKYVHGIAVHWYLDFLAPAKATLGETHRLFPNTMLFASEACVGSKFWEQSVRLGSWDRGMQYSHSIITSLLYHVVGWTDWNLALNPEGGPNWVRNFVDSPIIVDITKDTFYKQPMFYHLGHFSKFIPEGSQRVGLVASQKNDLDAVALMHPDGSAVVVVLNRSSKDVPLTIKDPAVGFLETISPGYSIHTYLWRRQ", "experiment": "qHTS fluorogenic enzyme assay for activators of N370S glucocerebrosidase (4-methylumbelliferyl-beta-D-glucopyranoside substrate)", "format": "biochemical", "conditions": "pH 5.0, 37° C. 40 min", "source_text": "qHTS Assay for Inhibitors and Activators of N370S glucocerebrosidase as a Potential Chaperone Treatment of Gaucher Disease: Primary Screen Confirmation\nThis is a fluorogenic enzyme assay with 4-methylumbelliferyl-beta-D-glucopyranoside as the substrate and N370S glucocerebrosidase from human spleen homogenate as the enzyme preparation. Upon the hydrolysis of this fluorogenic substrate, the resulting product, […] which can be detected by a standard fluorescence plate reader. Data were normalized to the controls for basal activity (without enzyme) and 100% activity (with enzyme). The AC50 values were determined from concentration-response data modeled with the standard Hill equation.\nHuman spleen homogenate is prepared as follows by homogenizing spleen with assay buffer containing 50 mM citric acid (titrated with potassium phosphate to pH 5.0), 100 mM potassium chloride, 10 mM sodium chloride, 1 mM magnesium chloride, 0.01% Tween-20. The protein concentration of the human spleen homogenate is approximated 1.35 ug/ul.\nThe assay is performed in 1536 well plates according to the following protocol. (1) 2 ul spleen homogenate ([…] final) is added to each well. (2) 23 nL test compound in DMSO solution is added to each well. The final concentration of compound in the test well is 0.5 nM to 58 uM. (3) 2 ul of substrate (1 mM final) are added to each well. (4) Incubate assay plates at 37° C. for 40 min. (5) Add 2 ul stop solution (1M NaOH and 1M Glycine mixture, pH 10) to each well. (6) Detect the assay plate in a ViewLux plate reader (PerkinElmer) using 365 nm excitation with emission at 440 nm.", "units": {"AC50": "µM"}, "values": [
      {"compound": "Cc1cccc(NC(=O)c2cnn3c(C)cc(C)nc23)c1", "note": "[NCGC00188771-01, 5,7-dimethyl-N-m-tolylpyrazolo[1,5-a]pyrimidine-3-carboxamide]", "AC50": 6.51},
      {"compound": "Cc1ccc(NC(=O)c2cnn3c(C)cc(C)nc23)cc1", "note": "[NCGC00188772-01, 5,7-dimethyl-N-p-tolylpyrazolo[1,5-a]pyrimidine-3-carboxamide]", "AC50": 1.63},
      {"compound": "Cc1cc(C)n2ncc(C(=O)Nc3ccc4c(c3)OCCO4)c2n1", "note": "[NCGC00188773-01, N-(2,3-dihydrobenzo[b][1,4]dioxin-6-yl)-5,7-dimethylpyrazolo[1,5-a]pyrimidine-3-carboxamide]", "AC50": 10.3},
      {"compound": "COc1ccc(NC(=O)c2cnn3c(C)cc(C)nc23)c(C)c1", "note": "[NCGC00188774-01, N-(4-methoxy-2-methylphenyl)-5,7-dimethylpyrazolo[1,5-a]pyrimidine-3-carboxamide]", "AC50": 51.7},
      {"compound": "COc1ccc(NC(=O)c2cnn3c(C)cc(C)nc23)cc1F", "note": "[NCGC00188776-01, N-(3-fluoro-4-methoxyphenyl)-5,7-dimethylpyrazolo[,15-a]pyrimidine-3-carboxamide]", "AC50": 1.46},
      {"compound": "Cc1ccc(NC(=O)c2cnn3c(C)cc(C)nc23)c(C)c1", "note": "[NCGC00188778-01, N-(2,4-dimethylphenyl)-5,7-dimethylpyrazolo[1,5-a]pyrimidine-3-carboxamide]", "AC50": 13},
      {"compound": "Cc1ccc(NC(=O)c2cnn3c(C)cc(C)nc23)c(F)c1", "note": "[NCGC00188779-01, N-(2-fluoro-4-methylphenyl)-5,7-dimethylpyrazolo[1,5-a]pyrimidine-3-carboxamide]", "AC50": 11.6},
      {"compound": "COc1ccc(NC(=O)c2cnn3c(C)cc(C)nc23)cc1Cl", "note": "[NCGC00188780-01, N-(3-chloro-4-methoxyphenyl)-5,7-dimethylpyrazolo[1,5-a]pyrimidine-3-carboxamide]", "AC50": 2.06},
      {"compound": "COc1ccc(NC(=O)c2cnn3c(C)cc(C)nc23)c(OC)c1", "note": "[NCGC00188781-01, N-(2,4-dimethoxyphenyl)-5,7-dimethylpyrazolo[1,5-a]pyrimidine-3-carboxamide]", "AC50": 25.9},
      {"compound": "Cc1cc(C)n2ncc(C(=O)Nc3ccc(C)c(Cl)c3)c2n1", "note": "[NCGC00188782-01, N-(3-chloro-4-methylphenyl)-5,7-dimethylpyrazolo[1,5-a]pyrimidine-3-carboxamide]", "AC50": 1.83},
      {"compound": "Cc1cc(C)n2ncc(C(=O)Nc3ccc(C)c(C)c3)c2n1", "note": "[NCGC00188783-01, N-(3,4-dimethylphenyl)-5,7-dimethylpyrazolo[1,5-a]pyrimidine-3-carboxamide]", "AC50": 1.46},
      {"compound": "CC(=O)c1ccc(NC(=O)c2cnn3c(C)cc(C)nc23)cc1", "note": "[NCGC00188784-01, N-(4-acetylphenyl)-5,7-dimethylpyraozlo[1,5-a]pyrimidine-3-carboxamide]", "AC50": 163},
      {"compound": "CC(=O)c1cccc(NC(=O)c2cnn3c(C)cc(C)nc23)c1", "note": "[NCGC00188785-01, N-(3-acetylphenyl)-5,7-dimethylpyrazolo[1,5-a]pyrimidine-3-carboxamide]", "AC50": 32.6},
      {"compound": "Cc1cc(C)n2ncc(C(=O)Nc3cccc(C(F)(F)F)c3)c2n1", "note": "[NCGC00188786-01, 5,7-dimethyl-N-(3-(trifluoromethyl)phenyl)pyrazolo[1,5-a]pyrimidine-3-carboxamide]", "AC50": 41.1},
      {"compound": "Cc1cc(C)n2ncc(C(=O)Nc3ccc(C(F)(F)F)cc3)c2n1", "note": "[NCGC00188787-01, 5,7-dimethyl-N-(4-(trifluoromethyl)phenyl)pyrazolo[1,5-a]pyrimidine-3-carboxamide]", "AC50": 1.46},
      {"compound": "Cc1cc(-c2ccccc2)nc2c(C(=O)NC3CCC(C(C)(C)C)CC3)cnn12", "note": "(centres unmarked) [NCGC00229707-01, N-(4-tert-butylcyclohexyl)-7-methyl-5-phenylpyrazolo[1,5-a]pyrimidine-3-carboxamide]", "AC50": 5.8},
      {"compound": "Cc1cc(-c2ccccc2)nc2c(C(=O)NC3CCC(C(C)(C)C)CC3)cnn12", "note": "(centres unmarked) [NCGC00229708-01, N-(4-tert-butylcyclohexyl)-7-methyl-5-phenylpyrazolo[1,5-a]pyrimidine-3-carboxamide]", "AC50": 2.06}
    ]}
  ]
}
